Source: patent publication US9057094B1, “Nanoparticle-mediated methods for antimicrobial susceptibility testing of bacteria” (UNIVERSITY OF CENTRAL FLORIDA RESEARCH FOUNDATION, INC., priority 2007, dated 2015)

Legend:
E. coli [1] = assay: Dextran-coated iron oxide nanoparticle (IO NP)/Con A magnetic relaxation (ΔT2) assay for MIC; type: cell-based, Escherichia coli; conditions: E. coli 10^6 CFUs, 2 hours at 37° C. in MH broth; Con A 30-minute incubation at room temperature
Description: (§1) In order to investigate if the dextran-coated iron oxide nanoparticles can monitor the starch utilization due to bacterial metabolic activity, different populations of Escherichia coli (strain 8739 from ATCC) were grown in starch-containing MH broth (DIFCOTM, BD) for 2 hours at 37° C. For determination of the minimum inhibitory concentration, Escherichia coli (10^6 CFU), Serratia marcescens (ATCC, 106 CFU) and Shigella sonnie (strain 9290 from ATCC, 106CFU) were grown in a starch-containing MH broth (DIFCOTM, BD), for 2 hours at 37° C. in the presence or absence of ampicillin. […]
(§2) First, we wanted to determine if magnetic IO NPs coated with dextran could be used to determine and quantify the levels of a polysaccharide (starch) in bacterial culture media. […] The samples were examined in a Bruker 0.47 T (20 MHz) magnetic relaxometer (The MiniSpec, Bruker), and the individual sample's changes in spin-spin relaxation times (ΔT2) were determined based on the formula: |ΔT2incubation time−ΔT2prior ConA|. […]
Then, utilizing the IO NPs, we determined ampicillin's MIC. […] Specifically, the magnetic-relaxation-determined minimum inhibitory concentration was 8 μg, as at this concentration we observed a drastic change in the values of ΔT2. […]

S. marcescens [2] = assay: Dextran-coated polysaccharide nanosensors, antimicrobial susceptibility in blood-supplemented MH broth; type: cell-based, Serratia marcescens; conditions: 2 hours at 37° C., hour-long incubation at 25° C.
Description: as §1, with “ampicillin. For determination of MIC in blood, bacterial stocks (10^6 CFU) were grown in the presence or absence of ampicillin in a 5%-blood-supplemented starch-containing MH broth, for 2 hours at 37° C.” for “ampicillin.”
(§3) Lastly, due to the fact that many bacteria can either cause septicemia or require growth in optically turbid media, it is important to assess bacterial susceptibility in these complex matrices. However, most current methods cannot be utilized for the detection of molecular targets and assessment of antimicrobial susceptibility in blood, due to the strong absorbance and scattering from the matrix's constituents, including platelets and red blood cells. […] After 45 minutes following Con A addition at room temperature, we determined that the E. coli's ampicillin MIC was 8 μg, without observing any nanoparticle precipitation.

E. coli [3] = assay: as above; type: cell-based, Escherichia coli; conditions: 2 hours at 37° C., 45 minutes following Con A addition at room temperature
Description: as §1, with “ampicillin. For determination of MIC in blood, bacterial stocks (10^6 CFU) were grown in the presence or absence of ampicillin in a 5%-blood-supplemented starch-containing MH broth, for 2 hours at 37° C.” for “ampicillin.”
as §3

S. marcescens [4] = assay: Con A-conjugated nanosensors (non-competition assay), blood cultures; type: cell-based, Serratia marcescens; conditions: within 5 minutes after addition of bacterial sample
Description: as §1, with “ampicillin. For determination of MIC in blood, bacterial stocks (10^6 CFU) were grown in the presence or absence of ampicillin in a 5%-blood-supplemented starch-containing MH broth, for 2 hours at 37° C.” for “ampicillin.”
(§4) In our first set of experiments with the aminated silica-coated nanoparticles, we determined whether these nanoparticles clustered non-specifically in the presence of Con A in solution. […]
(§5) Then, we examined if MIC determination can be achieved using these Con A-conjugated nanosensors, in blood cultures of E. coli and S. marcescens. […] Likewise, within 5 minutes the Con A-conjugated nanosensors assessed that S. marcescens was resistant to ampicillin, further corroborating the findings that the non-competition assay format provides faster results than the competition-based assay of the dextran-coated nanosensors (FIG. 20B).

E. coli [5] = assay: as above; type: cell-based, Escherichia coli; conditions: within 5 minutes after addition of bacterial sample
Description: as §1, with “ampicillin. For determination of MIC in blood, bacterial stocks (10^6 CFU) were grown in the presence or absence of ampicillin in a 5%-blood-supplemented starch-containing MH broth, for 2 hours at 37° C.” for “ampicillin.”
as §4, §5

Shigella sonnei = assay: Dextran-coated IO NP/Con A magnetic relaxation (ΔT2) assay for MIC; type: cell-based; conditions: Shigella sonnei 10^6 CFUs, 2 hours at 37° C. in MH broth; Con A 30-minute incubation at room temperature
Description: as §1, with “ampicillin. For determination of MIC in blood, bacterial stocks (10^6 CFU) were grown in the presence or absence of ampicillin in a 5%-blood-supplemented starch-containing MH broth, for 2 hours at 37° C.” for “ampicillin.”
as §2
(§6) We then determined the antibiotic susceptibility or resistance of other bacteria utilizing the IO NPs. […]

E. coli [6] = assay: Dextran-coated gold nanoparticle (Au NP)/Con A surface plasmon band shift assay for MIC; type: cell-based, Escherichia coli; conditions: E. coli 10^6 CFU, 2 hours at 37° C. in MH broth; Au NPs + Con A 30 minutes at 25° C.
Description: as §1
Accurate determination of the minimum inhibitory concentration (MIC) can prevent adverse side effects, such as renal toxicity. […] Then, aliquots of these samples were incubated with Au NPs for 30 minutes at 25° C., in the presence of Con A. Based on the shifts of the surface plasmon band, the MIC was determined to be 8 μg, as the corresponding surface plasmon band shift was statistically different than the control, containing bacteria growing in the absence of antibiotic (FIG. 8A). […] Bacterial growth was assessed based on the broth's turbidity, whereas absence of turbidity was an indicator of successful antimicrobial susceptibility. […] This concentration was identical to the Au NP-determined MIC, though the Au NP-based method yielded the same results much faster.

Serratia marcescens = assay: Dextran-coated IO NP/Con A magnetic relaxation (ΔT2) assay of antibiotic resistance; type: cell-based; conditions: Serratia marcescens 10^6 CFUs, 2 hours at 37° C. in MH broth; Con A 30-minute incubation at room temperature
Description: as §1, with “ampicillin. For determination of MIC in blood, bacterial stocks (10^6 CFU) were grown in the presence or absence of ampicillin in a 5%-blood-supplemented starch-containing MH broth, for 2 hours at 37° C.” for “ampicillin.”
as §2, §6

E. coli [7] = assay: High-throughput Au-NP/Con A assay on 96-well plate; type: cell-based, Escherichia coli; conditions: E. coli 10^6 CFU, Con A 30-min at 25° C.
Source text: Finally, the potential of our Au-NP-based assay for the determination of antimicrobial susceptibility in high-throughput format was investigated. In these studies, samples of heat-inactivated E. coli (10^6 CFU) and E. coli (10^6 CFU) grown in the presence or absence of ampicillin were screened with the Au-NP on a 96-well plate using a microtiter plate reader.

E. coli [8] = assay: Turbidity method (24-hour incubation in MH broth) for MIC; type: cell-based, Escherichia coli; conditions: serial dilutions in MH broth, 24-hour incubation at 37° C.
Description: Accurate determination of the minimum inhibitory concentration (MIC) can prevent adverse side effects, such as renal toxicity. Considering that the contemporary MIC determination depends on a day-long process, we examined if Au NPs can yield results faster without sacrificing reliability. Initially, E. coli (10^6 CFU) were incubated for 2 hours at 37° C. in MH broth, in the presence of different concentrations of ampicillin. Then, aliquots of these samples were incubated with Au NPs for 30 minutes at 25° C., in the presence of Con A. Based on the shifts of the surface plasmon band, the MIC was determined to be 8 μg, as the corresponding surface plasmon band shift was statistically different than the control, containing bacteria growing in the absence of antibiotic (FIG. 8A). Correlation with standard methods was achieved by inoculating serial dilutions of ampicillin in MH broth with E. coli, followed by a 24-hour long incubation at 37° C. Bacterial growth was assessed based on the broth's turbidity, whereas absence of turbidity was an indicator of successful antimicrobial susceptibility. […] This concentration was identical to the Au NP-determined MIC, though the Au NP-based method yielded the same results much faster.

CC1(C)S[C@@H]2[C@H](NC(=O)[C@H](N)c3ccccc3)C(=O)N2[C@H]1C(=O)O [ampicillin]
Magnetic-relaxation-determined minimum inhibitory concentration (E. coli [1]): 8 µg | Drug susceptibility or resistance in blood (S. marcescens [2]): drug resistance | Ampicillin MIC in blood (E. coli [3]): 8 µg | Drug susceptibility or resistance in blood cultures, Con A-conjugated nanosensors (S. marcescens [4]): resistant | Ampicillin MIC in blood cultures, Con A-conjugated nanosensors (E. coli [5]): 8 µg | Magnetic-relaxation-determined minimum inhibitory concentration (Shigella sonnei): 8 µg | MIC (minimum inhibitory concentration) based on shifts of the surface plasmon band (E. coli [6]): 8 µg | Antibiotic susceptibility or resistance (changes in T2) (Serratia marcescens): resistant | Categorization of sample (inhibitory or non-inhibitory) (E. coli [7]; 2 μg ampicillin): non-inhibitory | Categorization of sample (inhibitory or non-inhibitory) (E. coli [7]; 64 μg ampicillin): inhibitory | Lowest ampicillin concentration where the MH broth was clear (turbidity MIC) (E. coli [8]): 8 µg
